Source: patent publication US20250026752A1, “POSITIVE ALLOSTERIC MODULATORS OF THE MUSCARINIC ACETYLCHOLINE RECEPTOR M4” (Vanderbilt University, priority 2021, published 2025)

Molecular target: T1, human mAChR M4 (Homo sapiens, UniProt P08173)
T1 construct: expressed in transfected cells; host or cells: CHO-K1 (ATCC), stably expressing hM4 and Gqi5
T1 sequence (P08173 1-479): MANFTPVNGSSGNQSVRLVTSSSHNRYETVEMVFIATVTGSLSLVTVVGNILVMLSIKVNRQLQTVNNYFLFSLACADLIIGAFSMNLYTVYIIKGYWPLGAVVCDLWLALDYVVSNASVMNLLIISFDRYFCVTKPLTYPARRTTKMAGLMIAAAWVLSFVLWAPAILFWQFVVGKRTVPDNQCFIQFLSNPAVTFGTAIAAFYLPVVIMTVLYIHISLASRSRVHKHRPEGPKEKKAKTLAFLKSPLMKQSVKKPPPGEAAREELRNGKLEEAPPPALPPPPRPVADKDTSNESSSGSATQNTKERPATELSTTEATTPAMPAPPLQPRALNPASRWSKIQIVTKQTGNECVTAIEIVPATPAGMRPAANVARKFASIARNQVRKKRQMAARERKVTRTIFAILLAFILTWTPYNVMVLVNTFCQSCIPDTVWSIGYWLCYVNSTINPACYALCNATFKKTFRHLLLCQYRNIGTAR
Assay: mAChR M4 cell-based functional assay: calcium flux (Fluo-4, FDSS), positive allosteric modulator activity on the EC20 acetylcholine response, hM4-Gqi5 CHO-K1 cells
Conditions: for Emax at 30 µM: CHO-K1, human M4, % ACh maximum at 30 μM; for EC50: human M4, PAM activity on EC20 acetylcholine response, calcium flux, read-out: Human M4 EC50
Summary of the method: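 Potentiation was taken as the concentration-dependent rise in the EC20 acetylcholine calcium response, fitted by a four-parameter logistic with EC20 as baseline. Fluo-4-loaded hM4-Gqi5 CHO-K1 cells received 11-point, threefold-diluted compound before acetylcholine at 144 s; FDSS read at 1 Hz.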

SMILES	Emax at 30 µM [%]	EC50 [nM]
Cc1ccc2nc(Nc3ccnn3C)nc(N3CCc4ncc(Nc5ccnn5C)cc4C3)c2c1 [Compound 189, 6-methyl-N-(2-methylpyrazol-3-yl)-4-[3-[(2-methylpyrazol-3-yl)amino]-7,8-dihydro-5H-1,6-naphthyridin-6-yl]quinazolin-2-amine]	127	180
Clc1ccc2nc(C3CC3)nc(N3CCc4ncc(N5CCCn6nccc65)cc4C3)c2c1 [Compound 192, 6-chloro-2-cyclopropyl-4-[3-(6,7-dihydro-5H-pyrazolo[1,5-a]pyrimidin-4-yl)-7,8-dihydro-5H-1,6-naphthyridin-6-yl]quinazoline]	100	410
Fc1ccc2nc(C3CC3)nc(N3CCc4ncc(N5CCCn6nccc65)cc4C3)c2c1 [Compound 194, 2-cyclopropyl-4-[3-(6,7-dihydro-5H-pyrazolo[1,5-a]pyrimidin-4-yl)-7,8-dihydro-5H-1,6-naphthyridin-6-yl]-6-fluoro-quinazoline]	10	230
Cn1nccc1Nc1nc(N2CCc3ncc(C(F)(F)F)cc3C2)c2cc(F)ccc2n1 [Compound 197, 6-fluoro-N-(2-methylpyrazol-3-yl)-4-[3-(trifluoromethyl)-7,8-dihydro-5H-1,6-naphthyridin-6-yl]quinazolin-2-amine]	98	340
Fc1ccc2nc(Nc3ccccc3F)nc(N3CCc4ncc(C(F)(F)F)cc4C3)c2c1 [Compound 200, 6-fluoro-N-(2-fluorophenyl)-4-[3-(trifluoromethyl)-7,8-dihydro-5H-1,6-naphthyriidn-6-yl]quinazolin-2-amine]	63	> 10000
OC1(C2CC2)CN(c2nc(N3CCc4ncc(C(F)(F)F)cc4C3)c3cc(F)ccc3n2)C1 [Compound 201, 3-cyclopropyl-1-[6-fluoro-4-[3-(trifluoromethyl)-7,8-dihydro-5H-1,6-naphthyridin-6-yl]quinazolin-2-yl]azetidin-3-ol]	97	290
[2H]c1nc(N2CCc3ncc(N4CCOc5ncccc54)cc3C2)c2cc(C)ccc2n1 [Compound 204, 1-[6-(2-deuterio-6-methyl-quinazolin-4-yl)-7,8-dihydro-5H-1,6-naphthyridin-3-yl]-2,3-dihydropyrido[2,3-b][1,4]oxazine]	93	80
Cc1ccc2nc(N3CCCC3)nc(N3CCc4ncc(C(F)(F)F)cc4C3)c2c1 [Compound 206, 6-methyl-2-pyrrolidin-1-yl-4-[3-(trifluoromethyl)-7,8-dihydro-5H-1,6-naphthyridin-6-yl]quinazoline]	74	720
Cn1nccc1Nc1cnc2c(c1)CN(c1nc(N3CCCC3)nc3ccc(F)cc13)CC2 [Compound 210, 6-(6-fluoro-2-pyrrolidin-1-yl-quinazolin-4-yl)-N-(2-methylpyrazol-3-yl)-7,8-dihydro-5H-1,6-naphthyridin-3-amine]	81	240
CN1CCN(c2nc(N3CCc4ncc(Nc5ccnn5C)cc4C3)c3cc(F)ccc3n2)CC1 [Compound 211, 6-[6-fluoro-2-(4-methylpiperazin-1-yl)quinazolin-4-yl]-N-(2-methylpyrazol-3-yl)-7,8-dihydro-5H-1,6-naphthyridin-3-amine]	80	470
Cn1nccc1Nc1cnc2c(c1)CN(c1nc(NCC(C)(C)O)nc3ccc(F)cc13)CC2 [Compound 212, 1-[[6-fluoro-4-[3-[(2-methylpyrazol-3-yl)amino]-7,8-dihydro-5H-1,6-naphthyridin-6-yl]quinazolin-2-yl]amino]-2-methyl-propan-2-ol]	90	190
Cn1nccc1Nc1cnc2c(c1)CN(c1nc(N3CCOC(C)(C)C3)nc3ccc(F)cc13)CC2 [Compound 214, 6-[2-(2,2-dimethylmorpholin-4-yl)-6-fluoro-quinazolin-4-yl]-N-(2-methylpyrazol-3-yl)-7,8-dihydro-5H-1,6-naphthyridin-3-amine]	70	830

More lines, now with the values ahead:

Emax at 30 µM [%]	EC50 [nM]	SMILES
91	60	[2H]c1nc(N2CCc3ncc(C(F)(F)F)cc3C2)c2cc(F)ccc2n1 [Compound 190, 2-deuterio-6-fluoro-4-[3-(trifluoromethyl)-7,8-dihydro-5H-1,6-naphthyridin-6-yl]quinazoline]
80	1070	Cc1nn(C)cc1-c1cnc2c(c1)CN(c1nc(C3CC3)nc3ccc(Cl)cc13)CC2 [Compound 191, 6-chloro-2-cyclopropyl-4-[3-(1,3-dimethylpyrazol-4-yl)-7,8-dihydro-5H-1,6-naphthyridin-6-yl]quinazoline]
85	950	Cc1nn(C)cc1-c1cnc2c(c1)CN(c1nc(C3CC3)nc3ccc(F)cc13)CC2 [Compound 193, 2-cyclopropyl-4-[3-(1,3-dimethylpyrazol-4-yl)-7,8-dihydro-5H-1,6-naphthyridin-6-yl]-6-fluoro-quinazoline]
95	730	Fc1ccc2nc(N3CCCC3)nc(N3CCc4ncc(C(F)(F)F)cc4C3)c2c1 [Compound 195, 6-fluoro-2-pyrrolidin-1-yl-4-[3-(trifluoromethyl)-7,8-dihydro-5H-1,6-naphthyridin-6-yl]quinazoline]
98	410	Fc1ccc2nc(NC3CC3)nc(N3CCc4ncc(C(F)(F)F)cc4C3)c2c1 [Compound 196, N-cyclopropyl-6-fluoro-4-[3-(trifluoromethyl)-7,8-dihydro-5H-1,6-naphthyridin-6-yl]quinazolin-2-amine]
94	670	Fc1ccc2nc(N3CCOc4ncccc43)nc(N3CCc4ncc(C(F)(F)F)cc4C3)c2c1 [Compound 198, 1-[6-fluoro-4-[3-(trifluoromethyl)-7,8-dihydro-5H-1,6-naphthyridin-6-yl]quinazolin-2-yl]-2,3-dihydropyrido[2,3-b][1,4]oxazine]
96	3370	Fc1ccc2nc(Oc3ccccc3F)nc(N3CCc4ncc(C(F)(F)F)cc4C3)c2c1 [Compound 199, 6-fluoro-2-(2-fluorophenoxy)-4-[3-(trifluoromethyl)-7,8-dihydro-5H-1,6-naphthyridin-6-yl]quinazoline]
92	300	Fc1ccc2nc(NC3CCOC3)nc(N3CCc4ncc(C(F)(F)F)cc4C3)c2c1 (centres unmarked) [Compound 202, 6-fluoro-N-tetrahydrofuran-3-yl-4-[3-(trifluoromethyl)-7,8-dihydro-5H-1,6-naphthyridin-6-yl]quinazolin-2-amine]
90	410	CC(C)(O)CNc1nc(N2CCc3ncc(C(F)(F)F)cc3C2)c2cc(F)ccc2n1 [Compound 203, 1-[[6-fluoro-4-[3-(trifluoromethyl)-7,8-dihydro-5H-1,6-naphthyridin-6-yl]quinazolin-2-yl]amino]-2-methyl-propan-2-ol]
63	670	Cc1ccc2nc(N3CCOCC3)nc(N3CCc4ncc(C(F)(F)F)cc4C3)c2c1 [Compound 205, 4-[6-methyl-4-[3-(trifluoromethyl)-7,8-dihydro-5H-1,6-naphthyridin-6-yl]quinazolin-2-yl]morpholine]
75	440	Cc1ccc2nc(NC3CCOC3)nc(N3CCc4ncc(C(F)(F)F)cc4C3)c2c1 (centres unmarked) [Compound 207, 6-methyl-N-tetrahydrofuran-3-yl-4-[3-(trifluoromethyl)-7,8-dihydro-5H-1,6-naphthyridin-6-yl]quinazolin-2-amine]
76	390	Cc1ccc2nc(NCC(C)(C)O)nc(N3CCc4ncc(C(F)(F)F)cc4C3)c2c1 [Compound 208, 2-methyl-1-[[6-methyl-4-[3-(trifluoromethyl)-7,8-dihydro-5H-1,6-naphthyridin-6-yl]quinazolin-2-yl]amino]propan-2-ol]
50	> 10000	Fc1cc2c(N3CCc4ncc(C(F)(F)F)cc4C3)nc(N3CCOCC3)nc2cc1Cl [Compound 209, 4-[7-chloro-6-fluoro-4-[3-(trifluoromethyl)-7,8-dihydro-5H-1,6-naphthyridin-6-yl]quinazolin-2-yl]morpholine]
86	490	Cn1nccc1Nc1cnc2c(c1)CN(c1nc(NC3CCCOC3)nc3ccc(F)cc13)CC2 (centres unmarked) [Compound 213, 6-fluoro-4-[3-[(2-methylpyrazol-3-yl)amino]-7,8-dihydro-5H-1,6-naphthyridin-6-yl]-N-tetrahydropyran-3-yl-quinazolin-2-amine]
107	1610	FC(F)(F)c1ccc2ncnc(N3CCc4ncc(N5CCOc6ncccc65)cc4C3)c2c1 [Compound 215, 1-(6-(6-(trifluoromethyl)quinazolin-4-yl)-5,6,7,8-tetrahydro-1,6-naphthyridin-3-yl)-2,3-dihydro-1H-pyrido[2,3-b][1,4]oxazine]
81	1050	Fc1ccc2ncnc(N3CCc4ncc(N5CCO[C@H](c6ccccc6)C5)cc4C3)c2c1 [Compound 216, (R)-4-(6-(6-fluoroquinazolin-4-yl)-5,6,7,8-tetrahydro-1,6-naphthyridin-3-yl)-2-phenylmorpholine]
